The results in this text go back to patent US11731959B2, “Troxacitabine synthesis and crystal form thereof” (BEIJING HEBABIZ BIOTECHNOLOGY CO., LTD., priority 2015, dated 2023).

Format in all cases: physicochemical
Series [1] is described as follows: Hygroscopicity study by DVS method at 25° C. The note with it: for crystal form after water absorption / DVS (XRPD): XRPD before and after DVS; for humidity at which the crystal form begins to absorb water / water absorbed at 90% RH: 25° C. The method, then: The hygroscopicity of crystal forms A, C and E is evaluated by DVS method at 25° C. Crystal form A begins to absorb water at 70% RH and absorbs 8.4% of water at 90% RH. […] Crystal form E begins to absorb water at 80% RH and absorbs 8.5% of water at 90% RH. […] Therefore, crystal form C is selected for further stability study.

Series [2] can be described thus: Stability study of crystal form C (XRPD, TGA, DSC, HPLC). As for the experimental part:
Crystal form C is evaluated for its physical-chemical stability when placed at 80° C. for 24 h (with the top closed) as well as at 40° C./75% RH and 25° C./60% RH for 1 week (with the top open). The chemical and physical stability of the samples are tested by XRPD, TGA, DSC and HPLC.

The nature of series [3]: Crystal form conversion on storage or heating (XRPD/DSC). From the text: The innovator of this invention set up 103 pleiomorphic screening tests using 7 methods, and obtained 7 crystal forms therefrom, i.e., crystal forms A, B, C, E, F, J and K. Among those, crystal forms B, F and J are instable at common temperature while crystal form K is a crystal form of troxacitabine acetic acid solvate or acetate, crystal form C is a crystal form of troxacitabine monohydrate, and crystal forms A and E are the crystal forms of troxacitabine itself (anhydrous substance).
Transfer 201.3 mg of the final product obtained in the embodiment 1 to a 5-ml flasket, add 0.8 mL of water to dissolve and volatilize in a fume hood with the top open for 3 days. Transfer into a vacuum drying oven (<−100 KPa) and volatilize with the top open for 1 day. The resulted crystal form is called crystal form C and its superficial characteristics are obtained using x-ray powder diffraction (XRPD), thermogravimetric analysis (TGA) and differential scanning calorimetry (DSC).
Transfer 199.8 mg of the final product obtained in the embodiment 1 to a 5-ml flasket, add 4.0 mL of methanol:acetone=1:9 (v/v), and mix the suspension for 3 days. Centrifugate for 3 min at a rate of 10000 rpm, precipitate and vacuum dry for 1 h. The resulted crystal form is called crystal form E and its superficial characteristics are obtained using x-ray powder diffraction (XRPD) and differential scanning calorimetry (DSC). […] (the first endothermic peak at a starting temperature of 68.3° C. is the dehydration peak of crystal form C), the second endothermic peak disappears from DSC spectrum when heated to 160° C., that is, the second endothermic peak at a starting temperature of 146.0° C. is the crystal form conversion peak of crystal form A from crystal form E.)

[4] abbreviates: 1 week, 25° C./60% RH, top open.
Where [5] appears, read: 1 week, 40° C./75% RH, top open.

As to `Nc1ccn(C2CO[C@H](CO)O2)c(=O)n1` (some centres unmarked) [crystal form C], the hygroscopicity in series [1] (DVS, 25° C./80% RH) was 0.14%. Further, the “crystal form after water absorption / DVS (XRPD)” value in series [1] is reported as “remain the same in crystal form”. Also, the “relative stability among crystal forms” value in series [1] (room temperature and room humidity) is on record as “most stable crystal form”. Besides, the “TGA weight loss (heated to 100° C.)” value in series [2] (0 h, NA) was 8.0; in series [2] (setting [4]), 8.2; in series [2] (setting [5]), 7.9; in series [2] (24 h, 80° C., top closed), 0.4. The HPLC purity is recorded as 100.0 area % in series [2] (0 h, NA); 100.0 area % in series [2] (setting [4]); 100.0 area % in series [2] (setting [5]); 100.0 area % in series [2] (24 h, 80° C., top closed). In addition, in series [2] (40° C./75% RH and 25° C./60% RH, 1 week), the physical stability result is reported as “physically stable”. The chemical stability entry in series [2] (80° C. 24 h, 40° C./75% RH and 25° C./60% RH 1 week, chemical impurity analysis) is listed as “chemically stable”. Besides, in series [3] (heated to 100° C., XRPD), the “crystal form change on heating” value is “conversion of crystal form C into crystal form A”.

As to `Nc1ccn(C2CO[C@H](CO)O2)c(=O)n1` (some centres unmarked) [crystal form A], in series [1] (DVS), the “humidity at which the crystal form begins to absorb water” value worked out at 70 % RH and the “water absorbed at 90% RH” value came out at 8.4%. Further, the “crystal form after water absorption / DVS (XRPD)” value in series [1] is “begins to convert into crystal form C”. In addition, in series [3] (1-month storage), the “crystal form change on storage” value is “partially convert into crystal form C”.

With `Nc1ccn(C2CO[C@H](CO)O2)c(=O)n1` (some centres unmarked) [crystal form E], in series [1] (DVS), the “humidity at which the crystal form begins to absorb water” value is reported as 80 % RH and the “water absorbed at 90% RH” value worked out at 8.5%. For the same compound, the “crystal form after water absorption / DVS (XRPD)” value in series [1] is on record as “begins to convert into crystal form C”. Besides, the “crystal form change on heating” value in series [3] (heated to 160° C., XRPD) was “conversion of crystal form E into crystal form A”. Also, the “crystal form change on storage” value in series [3] (stored for 3 months in air, XRPD) is listed as “has a tendency to convert into crystal form C”.
